Assay results taken from ChEMBL document CHEMBL1201862, “PubChem BioAssay data set” (2004).
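Compound exposure: 48 hours, 5 concentrations, 96-well plates. Here, GI50 denotes the concentration required for 50% inhibition of growth.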 Calls of active or inactive are those of the source. Cut-off read from the data, not from the text of the source: active = GI50 up to about 1.1 µM and inactive = higher.

Experiments:
Assay in all cases: NCI tumour cell line growth inhibition, 48 h
NCI-H460 = system: NCI-H460
SNB-19 = system: SNB-19
HCT-15 = system: HCT-15
HL-60 = system: HL-60
Hs-578T = system: Hs-578T
NCI-H226 = system: NCI-H226
UACC-62 = system: UACC-62
HCT-116 = system: HCT-116
CCRF-CEM = system: CCRF-CEM
SR = system: SR
SK-OV-3 = system: SK-OV-3
OVCAR-3 = system: OVCAR-3
A498 = system: A498
UO-31 = system: UO-31
SN12C = system: SN12C
MDA-MB-435 = system: MDA-MB-435
786-0 = system: 786-0
T47D = system: T47D
MDA-N = system: MDA-N
SK-MEL-28 = system: SK-MEL-28
K562 = system: K562
BT-549 = system: BT-549
COLO 205 = system: COLO 205
M14 = system: M14
HCC 2998 = system: HCC 2998
CAKI-1 = system: CAKI-1
TK-10 = system: TK-10
MDA-MB-231 = system: MDA-MB-231
LOX IMVI = system: LOX IMVI
NCI/ADR-RES = system: NCI/ADR-RES
HOP-92 = system: HOP-92
OVCAR-8 = system: OVCAR-8
ACHN = system: ACHN
HT-29 = system: HT-29
SW-620 = system: SW-620
SF-295 = system: SF-295
SK-MEL-5 = system: SK-MEL-5
EKVX = system: EKVX
SF-539 = system: SF-539
OVCAR-5 = system: OVCAR-5
SNB-75 = system: SNB-75
Malme-3M = system: Malme-3M
DU-145 = system: DU-145
RPMI-8226 = system: RPMI-8226
U-251 = system: U-251
UACC-257 = system: UACC-257
KM12 = system: KM12
OVCAR-4 = system: OVCAR-4
HOP-62 = system: HOP-62
NCI-H522 = system: NCI-H522
NCI-H23 = system: NCI-H23

CC(=O)NC1C(OCc2ccccc2)OC(CO)C(O)C1OCC(=O)N[C@@H](C)C(=O)N[C@H](CCC(=O)NCCNc1ccc([N+](=O)[O-])c2[nH]c3ccccc3c(=O)c12)C(N)=O (stereo partly specified)
GI50 (NCI-H460): 8.99 µM (inactive)
GI50 (SNB-19): 23 µM (inactive)
GI50 (HCT-15): 13.5 µM
GI50 (HL-60): 54.7 µM (inactive)
GI50 (Hs-578T): 71.9 µM (inactive)
GI50 (NCI-H226): 12.8 µM (inactive)
GI50 (UACC-62): 18.7 µM (inactive)
GI50 (HCT-116): 6.56 µM (inactive)
GI50 (CCRF-CEM): 67.6 µM (inactive)
GI50 (SR): 58.7 µM (inactive)
GI50 (SK-OV-3): 81.5 µM (inactive)
GI50 (OVCAR-3): 36.7 µM (inactive)
GI50 (A498): 24 µM (inactive)
GI50 (UO-31): 13.8 µM (inactive)
GI50 (SN12C): 27.4 µM (inactive)
GI50 (MDA-MB-435): 22.4 µM (inactive)
GI50 (786-0): 18.7 µM (inactive)
GI50 (T47D): 57 µM (inactive)
GI50 (MDA-N): 27.9 µM (inactive)
GI50 (SK-MEL-28): 33.2 µM (inactive)
GI50 (K562): 58.9 µM (inactive)
GI50 (BT-549): 20.1 µM (inactive)
GI50 (COLO 205): 15.9 µM (inactive)
GI50 (M14): 60.3 µM (inactive)
GI50 (HCC 2998): 10.9 µM (inactive)
GI50 (CAKI-1): 29.9 µM (inactive)
GI50 (TK-10): 15.4 µM (inactive)
GI50 (MDA-MB-231): 28.1 µM (inactive)
GI50 (LOX IMVI): 25.9 µM (inactive)
GI50 (NCI/ADR-RES): 21.6 µM (inactive)
GI50 (HOP-92): 21.6 µM (inactive)
GI50 (OVCAR-8): 18.2 µM (inactive)
GI50 (ACHN): 12.1 µM (inactive)
GI50 (HT-29): 19.4 µM (inactive)
GI50 (SW-620): 7.74 µM (inactive)
GI50 (SF-295): 37.4 µM (inactive)
GI50 (SK-MEL-5): 24.8 µM (inactive)
GI50 (EKVX): 20.8 µM (inactive)
GI50 (SF-539): 2.21 µM (inactive)
GI50 (OVCAR-5): 37.2 µM (inactive)
GI50 (SNB-75): 22.8 µM (inactive)
GI50 (Malme-3M): 84.5 µM (inactive)
GI50 (DU-145): 33.4 µM (inactive)
GI50 (RPMI-8226): 23 µM (inactive)
GI50 (U-251): 29.5 µM (inactive)
GI50 (UACC-257): 22.1 µM (inactive)
GI50 (KM12): 20.1 µM (inactive)
GI50 (OVCAR-4): 23.3 µM (inactive)
GI50 (HOP-62): 36.3 µM (inactive)
GI50 (NCI-H522): 7.62 µM (inactive)
GI50 (NCI-H23): 32.3 µM (inactive)
